Data on 1 compound can be found in patent US20090291928A1, “COMPOSITION FOR AMELIORATION/PREVENTION OF ADVERSE SIDE EFFECT IN STEROID THERAPY” (AJINOMOTO CO., INC., priority 2006, published 2009).

This data set relates to dexamethasone administered rat. The data set is described as follows: Muscular atrophy prophylactic effect of BCAA in dexamethasone administered rat (Example 1). Type of data set: in vivo. To be noted: effect of dexamethasone administration itself, 600 μg/kg i.p. 5 days. The method, then: Dexamethasone (600 μg/kg) was intraperitoneally administered to rats (SD; 10-11-week-old) for 5 consecutive days. An isoleucine, leucine and valine (weight ratio 1:2:1.2) blend (BCAA) administration group was orally administered with 0.75 g/kg of BCAA above simultaneously for 5 consecutive days. A vehicle group was orally administered with distilled water consecutively in the same manner.
On day 5, the rats were autopsied and analyzed for muscular strength function evaluation, blood glucose level and plasma insulin level using a feed intake, body weight profile, muscle weight, grip strength measurement apparatus.
As the control group, pair-feeding normal rats were used.

In the case of `C[C@@H]1C[C@H]2[C@@H]3CCC4=CC(=O)C=C[C@]4(C)[C@@]3(F)[C@@H](O)C[C@]2(C)[C@@]1(O)C(=O)CO` [dexamethasone], the blood glucose level result (SD rats (FIG. 4)) is “increased”. For the same compound, for the setting “SD rats (FIG. 5)”, the insulin level entry is “increased”.
